Results on 76 substances are retold here after ChEMBL document CHEMBL4665541, “Search for new therapeutic options for the uncommon pathogen Mycobacterium chimaera: an open drug discovery approach” (Lancet Microbe, 2021).

Holding throughout (format): functional, organism-based
Common to all, as to set-up: conc 20 uM

For assay [1], the system named is Mycobacterium intracellulare subsp. chimaera. As to the kind of experiment: (§1) Inhibition of mycobacterial growth using the resazurin microtitre cell viability assay (REMA), compounds at final concentration of 20 µM (2% v/v DMSO). Hits were classed as compounds that inhibited bacterial growth by 70% or more compared to drug-free controls. The following applies: NCTC13781. Background: Alamar Blue is a resazurin reagent that responds to reducing activity.

Assay [2] has as its system Mycobacterium tuberculosis. The assay is described as §1. The following applies: H37Rv.
Assay [3] has as its system Mycobacteroides abscessus. The assay is described as §1. The note with it: ATCC19977.

As to MMV023969, the Survival in assay [1] is 92.8%; in assay [2] it was 19.5%; in assay [3] it was 96%.
As to MMV023985, the Survival is 109% in assay [1], 85.1% in assay [2] and 101% in assay [3].
For the substance MMV024035, the values for the Survival in assay [1], in assay [2] and in assay [3] were 98.3%, 85.9% and 117%, respectively.
MMV024101: the Survival in assay [1] is 100%; in assay [2], 99.6%; in assay [3], 95.8%.
As to MMV024114, the Survival is 106% in assay [1], 126% in assay [2] and 121% in assay [3].
On the same counts, the results for MMV024195 are 94.1%, 74.2% and 103%.
The corresponding values for MMV024311 are 106%, 74.4% and 96.6%.
As to MMV024397, the Survival in assay [1] was 98.2%; in assay [2] it was 88.8%; in assay [3] it was 118%.
Turning to MMV024406, the Survival in assay [1] is 100%; in assay [2], 89%; in assay [3] it was 114%.
For MMV024443, the Survival in assay [1] was 101%; in assay [2], 102%; in assay [3], 94.5%.
In the case of MMV024829, the Survival is 103% in assay [1], 88.9% in assay [2] and 119% in assay [3].
For MMV024937, the figures for the Survival in assay [1], in assay [2] and in assay [3] were 111%, 88.4% and 103%, respectively.
Turning to MMV026020, the results for the Survival in assay [1], in assay [2] and in assay [3] were 105%, 102% and 113%, respectively.
On the same counts, the results for MMV026313 are 86.2%, 82.9% and 100%.
Consider MMV026356, for which the Survival was 89.7% in assay [1], 101% in assay [2] and 107% in assay [3].
On to MMV026468, for which the Survival in assay [1] was 96.1%; in assay [2], 95.9%; in assay [3], 105%.
Take MMV026490: the Survival in assay [1] was 104%; in assay [2] it was 88.9%; in assay [3] it was 115%.
In the case of MMV026550, the Survival is 98.7% in assay [1], 88.2% in assay [2] and 111% in assay [3].
With MMV028694, the Survival in assay [1] is 91.4%; in assay [2] it was 88.7%; in assay [3], 113%.
On to MMV030734, for which the figures for the Survival in assay [1], in assay [2] and in assay [3] were 89.4%, 82.6% and 111%, respectively.
As to MMV031011, the Survival was 89.4% in assay [1], 99.4% in assay [2] and 109% in assay [3].
Regarding MMV032967, the Survival is 87.8% in assay [1], 92.6% in assay [2] and 104% in assay [3].
For the substance MMV032995, the Survival was 98.4% in assay [1], 89.1% in assay [2] and 111% in assay [3].
With MMV045105, the Survival was 102% in assay [1], 107% in assay [2] and 113% in assay [3].
On the same counts, the results for MMV047015 are 85.3%, 52.2% and 111%.
As for MMV053220, the Survival was 97.9% in assay [1], 90.6% in assay [2] and 115% in assay [3].
As for MMV054312, the Survival in assay [1] is 76.8%; in assay [2], 46.8%; in assay [3], 111%.
Turning to MMV062221, the Survival in assay [1] was 112%; in assay [2], 103%; in assay [3] it was 114%.
Take MMV063404: the values for the Survival in assay [1], in assay [2] and in assay [3] were 90.4%, 33.5% and 108%, respectively.
Regarding MMV069458, the results for the Survival in assay [1], in assay [2] and in assay [3] were 94.1%, 11.9% and 102%, respectively.
MMV084603: the Survival in assay [1] was 81.6%; in assay [2] it was 98.8%; in assay [3], 112%.
As for MMV084864, the Survival was 100% in assay [1], 84.2% in assay [2] and 101% in assay [3].
Take MMV085071: the Survival is 86.4% in assay [1], 93.5% in assay [2] and 110% in assay [3].
Consider MMV085210, for which the figures for the Survival in assay [1], in assay [2] and in assay [3] were 88.2%, 82.8% and 115%, respectively.
The corresponding values for MMV085230 are 111%, 93.7% and 118%.
Take MMV085499: the Survival was 112% in assay [1], 90.8% in assay [2] and 106% in assay [3].
As for MMV090930, the Survival in assay [1] is 84.6%; in assay [2] it was 38.6%; in assay [3], 110%.
Take MMV099637: the Survival in assay [1] was 95.3%; in assay [2], 109%; in assay [3] it was 98.4%.
Take MMV102872: the Survival was 97.7% in assay [1], 18.3% in assay [2] and 114% in assay [3].
The corresponding values for MMV146306 are 96.2%, 96.1% and 107%.
MMV153413: the Survival is 9.37% in assay [1], 26.5% in assay [2] and 111% in assay [3].
Regarding MMV161996, the Survival in assay [1] is 108%; in assay [2], 119%; in assay [3] it was 103%.
With MMV188296, the figures for the Survival in assay [1], in assay [2] and in assay [3] were 98%, 95% and 109%, respectively.
In the case of MMV200748, the Survival in assay [1] is 100%; in assay [2] it was 103%; in assay [3], 108%.
With MMV202458, the figures for the Survival in assay [1], in assay [2] and in assay [3] were 98.1%, 132% and 99.9%, respectively.
For the substance MMV202553, the Survival in assay [1] was 100%; in assay [2], 83.4%; in assay [3], 109%.
MMV228911: the Survival is 89.5% in assay [1], 114% in assay [2] and 97.2% in assay [3].
As for MMV272144, the Survival in assay [1] is 105%; in assay [2] it was 85.8%; in assay [3], 110%.
Regarding MMV392832, the figures for the Survival in assay [1], in assay [2] and in assay [3] were 93.8%, 75.4% and 106%, respectively.
As to MMV393144, the Survival in assay [1] was 85.6%; in assay [2], 92.6%; in assay [3] it was 103%.
The corresponding values for MMV393995 are 95.8%, 46.2% and 93.9%.
For the substance MMV407539, the Survival is 98.9% in assay [1], 85.3% in assay [2] and 103% in assay [3].
Regarding MMV407834, the values for the Survival in assay [1], in assay [2] and in assay [3] were 114%, 97% and 113%, respectively.
MMV461553: the Survival in assay [1] was 7.21%; in assay [2] it was 42.2%; in assay [3] it was 103%.
On to MMV495543, for which the Survival in assay [1] was 86.9%; in assay [2], 85.3%; in assay [3], 84.2%.
As for MMV553002, the Survival is 66.4% in assay [1], 34.8% in assay [2] and 113% in assay [3].
On to MMV560185, for which the Survival is 89.9% in assay [1], 80.8% in assay [2] and 116% in assay [3].
For the substance MMV595321, the Survival in assay [1] was 98.2%; in assay [2] it was 25.4%; in assay [3], 117%.
On the same counts, the results for MMV611037 are 105%, 92.7% and 106%.
For MMV634140, the Survival in assay [1] is 84%; in assay [2], 81%; in assay [3] it was 110%.
On the same counts, the results for MMV637229 are 96.4%, 87% and 112%.
Turning to MMV637953, the Survival in assay [1] was 117%; in assay [2], 102%; in assay [3] it was 145%.
On to MMV652003, for which the Survival in assay [1] is 97.2%; in assay [2], 112%; in assay [3] it was 109%.
As for MMV658988, the Survival is 74.9% in assay [1], 4.93% in assay [2] and 101% in assay [3].
On to MMV658993, for which the Survival is 100% in assay [1], 83.9% in assay [2] and 101% in assay [3].
As for MMV659004, the Survival in assay [1] is 100%; in assay [2] it was 6.84%; in assay [3], 112%.
The corresponding values for MMV659010 are 91.7%, 85.6% and 112%.
The corresponding values for MMV661713 are 47.5%, 25.2% and 112%.
As for MMV663250, the Survival in assay [1] is 116%; in assay [2], 95.4%; in assay [3] it was 104%.
For the substance MMV667494, the Survival was 95.7% in assay [1], 84.1% in assay [2] and 110% in assay [3].
Turning to MMV668727, the Survival in assay [1] was 96.8%; in assay [2] it was 100%; in assay [3], 102%.
On to MMV671636, for which the Survival in assay [1] is 85.9%; in assay [2], 95.9%; in assay [3] it was 112%.
As to MMV675968, the Survival in assay [1] was 1.74%; in assay [2], 15%; in assay [3], 87.6%.
MMV675969: the Survival in assay [1] is 107%; in assay [2], 95.8%; in assay [3], 93.7%.
With MMV675993, the Survival is 109% in assay [1], 92.9% in assay [2] and 102% in assay [3].
Consider MMV675994, for which the Survival is 108% in assay [1], 81.9% in assay [2] and 105% in assay [3].
